Reference: patent US11395798B2, “O/W type emulsion” (NOF CORPORATION, priority 2015, dated 2022)

Key:
[1] = retentivity in blood of Dex-CHEMS / Dex-Pal emulsions (HPLC of plasma); parameters: species or system ICR mouse; conditions: mouse, in vivo, iv
Description: When the lipid composition was 3 mM B-2/DOPC/Chol=3/4/3+10 mol % Dex-CHEMS+10 mol % DMG-PEG2000+10 mol % DSG-PEG2000 (1000 μL), a lipid solution was mixed in vitro as follows.
The solvent was evaporated once and the residue was redissolved in 100 μL CHCl3. N2 gas was blown to form a lipid thin film on the wall of a test tube. After a few hours of a vacuum treatment by a desiccator, 20 mM Maric acid buffer (30 mM NaCl, pH 3.0, 1000 μL) was added, and the mixture was incubated for 10 min at room temperature. After sonication with a bath-type sonicator for 30 sec, the mixture was sonicated by a probe-type sonicator for 5 min (output power: 30%). After centrifugation at 4° C., 15000 g for 5 min, the supernatant was collected. Neutralization was performed by adding an equal amount of 36 mM NaOH/PBS.
An emulsion composed of Dex-CHEMS and B-2 was administered to ICR mouse (4 w ♂) at 25 μg Dex-CHEMS/mouse. […]
Plasma (16.5 μL) centrifuged at 4° C., 1000 g for 10 min was transferred to another 1.5 mL tube. […] Using HPLC, the peak area of Dex-CHEMS and the peak area of 4 MU-Pal were calculated. The peak area of 0.5, 0.25, 0.125, 0.0625 nmol Dex-CHEMS was calculated by a similar method using HPLC and used as an analytical curve. […]
The residual rate in blood at 1 hr later was calculated with that 1 min after the administration as 100%.

[2] = influence of concentration of PEG lipid on retentivity in blood; format: in vivo; conditions: B-2/DOPC/Chol=3/4/3, 10 mol % DMG-PEG2000, 3-9 mol % DSG-PEG2000, 10 mol % Dex-CHEMS; mouse tail vein; almost equal for 6 and 9 mol %
Description: An emulsion having a composition of B-2/DOPC/Chol=3/4/3+10 mol % DMG-PEG2000+3-9 mol % DSG-PEG2000+10 mol % Dex-CHEMS was prepared in the same manner as in Example 1. An emulsion having each PEG amount was administered from the mouse tail vein, plasma was collected 1 min, 1 hr, 6 hr and 24 hr later, extracted with an organic solvent, and Dex-CHEMS concentration was calculated by HPLC. Along with an increase in DSG-PEG2000, the retentivity in blood was improved to become almost equal for DSG-PEG2000 6 mol % and 9 mol %.

In the case of `CC(C)CCC[C@@H](C)[C@H]1CC[C@H]2C3CC=C4C[C@@H](OC(=O)CCC(=O)OCC(=O)[C@]5(O)[C@@H](C)C[C@@H]6[C@H]7CCC8=CC(=O)C=C[C@@]8(C)[C@]7(F)C(O)C[C@]65C)CC[C@]4(C)[C@H]3CC[C@]12C` (some centres unmarked) [Dex-CHEMS, dexamethasone cholesterol hemisuccinate], the “residual in blood at 1 hr (1 min after administration as 100%)” value [1] is reported as “continuously remained” and the “retentivity in blood along with an increase in DSG-PEG2000” value [2] is reported as “improved”.
